Data on one sequence can be found in patent US20240124528A1, “ANTAGONIST OF INTERLEUKIN-17B RECEPTOR (IL-17RB) AND USE THEREOF” (Academia Sinica, priority 2020, published 2024).

Experiment [1] relates to peripheral blood mononuclear cells (PBMCs). The experiment can be described thus: IL-17E-induced IL-4 and IL-13 mRNA expression in PBMCs (RT-qPCR). The class given is cell-based. The settings on record: peptide pretreatment. The protocol:
(FIG. 24A) Flow chart describing the experimental design for testing the effects of anti-IL-17RB antibody and loop peptide on IL-17E-induced expression of IL-4 and IL-13 in peripheral blood mononuclear cells (PBMCs). PBMCs were purified by Ficoll-paque and used for the following experiments. (FIG. 24B to FIG. 24E) IL-4 and IL-13 expression induced by IL-17B or IL-17E in the PBMCs was determined by RT-qPCR after mIgG or anti-IL-17RB antibody pretreatment (FIG. 24B and FIG. 24C) and control or loop peptide pretreatment (FIG. 24D and FIG. 24E), respectively. (FIG. 24F and FIG. 24G) The DCs derived from mouse bone marrow were treated with the control or loop peptides, separately. (FIG. 24F) Flow cytometry analysis using anti-CD80, CD86 and MHC-II antibodies was performed to determine the activity of the DCs after incubation with the control or loop peptides for 48 hrs. (FIG. 24G) The activities of DCs were quantified by gating the area of the CD80, CD86 and MHC-II-positive cells (n=3). Data are mean±s.d.
In general terms: In qPCR the cycle at which signal appears reflects the starting amount.

The test system of experiment [2] is PDX-derived tumor cells (PC080, PC084). The experiment can be described thus: Aggressive behavior of PDX-derived pancreatic tumor cells (RT-qPCR, invasion, SACF). The class given is cell-based, human. The settings on record: peptides 30 mins, then 50 ng/ml rIL-17B. The protocol:
FIGS. 19A to 19D include charts showing that treatment with the loop peptide suppresses aggressive behavior of patient-derived pancreatic tumor cells. (FIG. 19A) CFPAC1 cells were treated with Alexa Fluor 568-labeled or non-labeled cold peptides of TAT48-57 (Control) and TAT-IL-17R403-416 (Loop) for 30 mins, respectively. Confocal microscopy was used for visualization of peptide penetration into cells. (FIG. 19B) The PDX-derived tumor cells (PC080 left, PC084 right) were pretreated with the peptides for 30 mins and then treated with 50 ng/ml rIL-17B for 2 hrs in serum-free conditions. (FIG. 19C and FIG. 19D) These cells were measured by RT-qPCR for the cytokine gene mRNA expression (n=3), or for Invasion assay (n=4) (FIG. 19C) and SACF assay (n=4) (FIG. 19D). Data in (FIG. 19B—FIG. 19D) are mean±s.d. * P<0.05, **P<0.001 by two-tailed Student's t-test.

In a further experiment the test system is CFPAC1-GFP/Luc cells. As to the kind of experiment: Orthotopic CFPAC1-GFP/Luc xenograft pancreatic cancer model in NOD-SCID mice. Format: in vivo, mouse.
In experiment [3] the test system is transgenic pancreatic cancer EKP mice. As to the kind of experiment: Spontaneous pancreatic cancer model, EKP mice plus cerulein. Format: in vivo, mouse. As to conditions: for recruitment of MDSC and M2 macrophage: pancreatic tissues, flow cytometry. The text has this: FIGS. 7A to 7J include charts showing that disruption of the interaction between IL-17RB and MLK4 by the loop peptide blocks oncogenic progression. (FIG. 7A) Peptides TAT48-57 (Control) (SEQ ID NO: 21) and TAT-IL-17RB403-416 (Loop) (SEQ ID NO: 30) used for the following experiments. (FIG. 7B) Immunoblotting analysis of IL-17RB binding to MLK4 with Loop peptide treatment. 293T cells expressing Flag-MLK4 and HA-IL-17RB were pretreated with the control and loop peptides with different dose (0, 0.1, 1, 10, 50, 100 ng/ml) for 30 mins, and then added rIL-17B for 30 mins. The cell lysates were reciprocally co-immunoprecipitated with anti-Flag and anti-HA and blotted with the indicated antibodies or directly immunoblotted with the indicated antibodies as the input controls. (FIG. 7C to FIG. 7F) CFPAC1cells were pretreated with the peptides for 30 mins and then added rIL-17B for 30 mins. The cell lysates were immunoblotted with the indicated antibodies or immunoprecipitated with anti-IL-17RB or control IgG and blotted with the indicated antibodies (FIG. 7C). CFPAC1 cells were pretreated with TAT48-57 or TAT-IL-17RB403-416 (50 ng/ml) 30 mins and then added rIL-17B for two hrs. CCL20 and TFF/mRNA expression of these cells were measured by RT-qPCR (n=3) (FIG. 7D), the same cells were for invasion assay (n=4) (FIG. 7E) and SACF assay (n=4) (FIG. 7F). (FIG. 7G) The scheme of the treatment of transgenic pancreatic cancer EKP mice (LSL-Kras^+/G12D; p53^+/−; Ela-Cre^ERT; plus cerulein) with the Loop peptides. (FIG. 7H) IHC images of pancreases stained with anti-P-Y447 antibody. Scale bars: 50 μm. The pancreas tissues were from EKP mice after treated with the control or loop peptides at Day 42. The Kras^+/+ mice (Kras^+/+; p53^+/−; Ela-Cre^ERT; plus cerulein) were used as the non-cancerous control. Boxes indicate the enlarged areas. (FIG. 7I) The experimental EKP mice (n=7 for each group) were euthanized at Day 56, and the metastatic tumor nodules in the lungs were counted. (FIG. 7J) Kaplan-Meier survival curve plot of the lifespans of the experimental EKP mice (n=7 for each group). Log-rank test was used.
FIGS. 20A to 20D include charts showing that treatment of TAT-IL-17RB403-416 peptide reduces the recruitment of MDSC and M2 macrophage. (FIG. 20A) Pancreatic tissues of EKP mice (LSL-Kras+/G12D; p53+/−; Ela-Cre^ERT; plus cerulein) (n=7 for each group) treated with TAT-IL-17RB403-416 (Loop) peptides were examined the tumor-immune modulating capacity by flow cytometry with specific cell surface markers as indicated. […] Data are mean±s.d. *P<0.05, **P<0.01 by two-tailed Student's t-test.
Formalin-fixed paraffin-embedded primary tumor tissue sections were used for IHC. Heat-induced antigen retrieval was performed using 0.1M citrate buffer, pH 6.0 and autoclaved for 20 mins. Endogenous peroxidase was eliminated with 3% H2O2. Slides were stained with an in-house-generated anti-IL-17RB antibody (A81, 1:2000) and anti-P-Y447 (1:500), respectively in PBS/10% FBS overnight at 4° C. After washing, slides were incubated with anti-rabbit/mouse HRP polymer before visualization with liquid diaminobenzidine tetrahydrochloride plus substrate DAB chromogen from Dako REAL EnVision (Carpinteria, CA). All slides were counterstained with hematoxylin.
Tumors were excised, weighed and measured. Approximately half of each dissected tumor was fixed in formalin for histopathologic analysis. The remaining tumor sections were placed in PBS with 1% (v/v) FBS and mechanically minced. […]
For orientation: In flow cytometry, cells or beads pass a laser one at a time.

The mark [4] stands for this setting: NOD-SCID mice, peptide 160 μg/100 μl PBS i.p. twice per week.

As for “RKKRRQRRRVCDGTCGKSEGSPS (IL-17RB inhibitory peptide, fusion protein) [loop peptide]”, the “IL-17E-induced IL-4 and IL-13 mRNA expression” value in experiment [1] is “does not suppress”. For the same sequence, the “aggressive behavior of patient-derived pancreatic tumor cells” value in experiment [2] is “suppresses”. Moreover, the “distant metastases of the pancreatic tumors to liver and lung (IVIS)” value in the experiment on CFPAC1-GFP/Luc cells (NOD-SCID mice euthanized at Day 34) is given as “significantly suppressed”. Besides, in the experiment with CFPAC1-GFP/Luc cells (setting [4]), the “expression of phospho-IL-17RB in the pancreatic tumors (IHC)” value is on record as “inhibited”, the “lifespan (Kaplan-Meier survival analysis)” value is reported as “prolonged” and the “tumor growth (IVIS bioluminescence)” value was “significantly impeded”. In addition, the pancreatic tumor progression result in the experiment with CFPAC1-GFP/Luc cells (orthotopic xenograft, NOD-SCID mice) is on record as “suppresses”. Further, the “lung metastasis nodule formation” value in experiment [3] (EKP mice euthanized at day 56) is listed as “suppressed”. Further, the “expression of P-Y447 IL-17RB in pancreatic tissues (IHC)” value in experiment [3] (EKP mice, Day 42) is “diminished”. Besides, in experiment [3] (EKP mice), the “recruitment of MDSC and M2 macrophage” value is “reduced”. Besides, the “recruitment of MDSC and M2 macrophage” value in experiment [3] (EKP mice, listed as TAT-IL-17RB403-416) was “reduces”. The “lifespan (Kaplan-Meier survival)” value in experiment [3] (EKP mice, second treatment protocol) is “significantly prolonged”.
